# Reference: ChEMBL document CHEMBL3421625, “Discovery and optimization of novel antagonists to the human neurokinin-3 receptor for the treatment of sex-hormone disorders (Part I)” (J Med Chem, 2015)
# How the values were obtained:
# [1] = target: Adenosine receptor A1 (Homo sapiens) (UniProt P30542); assay: Displacement of [3H]DPCPX from recombinant human adenosine A1 receptor expressed in CHO cells after 60 mins by scintillation counting analysis relative to control; assay type: cell-based
# [2] = Apparent permeability across apical to basolateral side in human Caco2 cells in presence of 0.1% bovine serum albumin; details: Caco-2
# [3] = tested on: Rattus norvegicus; assay: Unbound AUC in Sprague-Dawley rat at 3 mg/kg, po by LC-MS/MS analysis; assay type: ADME, organism-based; set-up: dose 3 mg/kg, route oral; details: in vivo
# [4] = in vivo; details: Sprague-Dawley, rat, po, 3 mg/kg
# [5] = target: Gastrin/cholecystokinin type B receptor (Homo sapiens) (UniProt P32239); assay: Inhibition of recombinant human CCK2 receptor expressed in CHO cells by radioligand displacement assay relative to control; assay type: cell-based; details: concentration not given here
# [6] = Fraction unbound in rat brain at 5 uM after 4 hrs by equilibrium dialysis method; assay type: ADME, tissue-based
# [7] = Apparent permeability across basolateral to apical side in human Caco2 cells in presence of 0.1% bovine serum albumin; details: Caco-2
# [8] = target: Kappa-type opioid receptor (Homo sapiens) (UniProt P41145); assay: Inhibition of KOR (unknown origin) at 10 uM relative to control
# Sequence of Kappa-type opioid receptor (Homo sapiens) (P41145 whole entry): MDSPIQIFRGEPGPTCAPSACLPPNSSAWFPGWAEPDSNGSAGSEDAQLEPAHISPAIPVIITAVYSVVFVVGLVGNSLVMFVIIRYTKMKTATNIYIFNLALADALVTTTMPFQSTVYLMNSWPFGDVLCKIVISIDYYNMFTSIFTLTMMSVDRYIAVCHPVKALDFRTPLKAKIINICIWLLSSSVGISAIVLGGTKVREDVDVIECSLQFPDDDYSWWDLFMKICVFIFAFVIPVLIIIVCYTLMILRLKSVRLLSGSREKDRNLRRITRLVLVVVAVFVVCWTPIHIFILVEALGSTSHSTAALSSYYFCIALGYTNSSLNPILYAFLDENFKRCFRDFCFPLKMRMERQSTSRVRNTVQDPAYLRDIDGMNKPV
# [9] = target: Prostaglandin E2 receptor EP4 subtype (Homo sapiens) (UniProt P35408); assay: Inhibition of recombinant human prostanoid receptor EP4 expressed in HEK293 cells by radioligand displacement assay relative to control; assay type: cell-based; details: concentration not given here
# Sequence of Prostaglandin E2 receptor EP4 subtype (Homo sapiens) (P35408 whole entry): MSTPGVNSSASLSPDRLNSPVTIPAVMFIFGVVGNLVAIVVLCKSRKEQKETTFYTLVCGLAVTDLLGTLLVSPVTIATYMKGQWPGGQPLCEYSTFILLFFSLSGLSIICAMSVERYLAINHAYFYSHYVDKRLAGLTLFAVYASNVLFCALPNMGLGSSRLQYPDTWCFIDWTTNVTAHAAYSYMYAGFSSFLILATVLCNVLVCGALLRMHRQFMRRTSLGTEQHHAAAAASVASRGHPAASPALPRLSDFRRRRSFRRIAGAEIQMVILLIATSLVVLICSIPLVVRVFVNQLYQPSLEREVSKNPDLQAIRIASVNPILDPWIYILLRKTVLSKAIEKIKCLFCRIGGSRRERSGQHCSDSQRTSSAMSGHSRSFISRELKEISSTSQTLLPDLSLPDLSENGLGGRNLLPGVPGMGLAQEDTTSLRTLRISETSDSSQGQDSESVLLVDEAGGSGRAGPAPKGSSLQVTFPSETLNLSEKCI
# [10] = target: Translocator protein (Homo sapiens) (UniProt P30536); assay: Inhibition of benzodiazepine receptor (unknown origin) by radioligand displacement assay relative to control; details: concentration not given here
# Sequence of Translocator protein (Homo sapiens) (P30536 whole entry): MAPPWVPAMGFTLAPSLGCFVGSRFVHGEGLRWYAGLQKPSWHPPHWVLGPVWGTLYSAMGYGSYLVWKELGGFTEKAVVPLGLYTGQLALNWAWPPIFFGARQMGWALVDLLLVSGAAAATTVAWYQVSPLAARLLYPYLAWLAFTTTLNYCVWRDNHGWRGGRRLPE
# [11] = tested on: Rattus norvegicus; assay: Unbound Cmax in Sprague-Dawley rat at 3 mg/kg, po by LC-MS/MS analysis; assay type: ADME, organism-based; set-up: dose 3 mg/kg, route oral; details: in vivo
# [12] = target: Adenosine receptor A3 (Homo sapiens) (UniProt P0DMS8); assay: Inhibition of recombinant human adenosine A3 receptor expressed in HEK293 cells by radioligand displacement assay relative to control; assay type: cell-based; details: concentration not given here
# Sequence of Adenosine receptor A3 (Homo sapiens) (P0DMS8 whole entry): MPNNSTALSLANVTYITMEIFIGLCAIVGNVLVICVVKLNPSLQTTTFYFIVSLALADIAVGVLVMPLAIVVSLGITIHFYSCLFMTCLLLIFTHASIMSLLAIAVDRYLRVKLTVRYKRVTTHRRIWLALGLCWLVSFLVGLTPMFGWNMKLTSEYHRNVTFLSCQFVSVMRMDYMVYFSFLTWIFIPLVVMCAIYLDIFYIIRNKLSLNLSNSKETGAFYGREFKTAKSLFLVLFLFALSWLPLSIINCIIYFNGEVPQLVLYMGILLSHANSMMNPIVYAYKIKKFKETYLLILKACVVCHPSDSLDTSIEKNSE
# [13] = Fraction unbound in rat plasma at 5 uM after 4 hrs by equilibrium dialysis method; assay type: ADME, cell-free
# [14] = Total systemic clearance in Sprague-Dawley rat at 1 mg/kg, iv by LC-MS/MS analysis; assay type: ADME, organism-based; set-up: dose 1 mg/kg, route intravenous; details: in vivo
# [15] = in vivo; details: Sprague-Dawley, rat, iv, 1 mg/kg
# [16] = in vivo; details: Sprague-Dawley, rat, po, 3 mg/kg; remark: listed apart in the source
# [17] = tested on: Rattus norvegicus; assay: Unbound AUC in Sprague-Dawley rat at 1 mg/kg, iv by LC-MS/MS analysis; assay type: ADME, organism-based; set-up: dose 1 mg/kg, route intravenous; details: in vivo
# [18] = in vivo; details: Sprague-Dawley, rat, iv, 1 mg/kg; remark: listed apart in the source
# Description: Volume of distribution at steady state in Sprague-Dawley rat at 1 mg/kg, iv by LC-MS/MS analysis
# [19] = target: Cytochrome P450 2D6 (Homo sapiens, UniProt P10635); assay: Inhibition of CYP2D6 (unknown origin) by luciferase reporter assay in presence of NADPH regeneration system; assay type: ADME
# [20] = Half life in rat liver microsomes; assay type: ADME
# [21] = target: T1, Cytochrome P450 1A2 (Homo sapiens, UniProt P05177); assay: Inhibition of CYP1A2 (unknown origin) by luciferase reporter assay in presence of NADPH regeneration system; assay type: ADME
# T1 sequence (P05177 whole entry): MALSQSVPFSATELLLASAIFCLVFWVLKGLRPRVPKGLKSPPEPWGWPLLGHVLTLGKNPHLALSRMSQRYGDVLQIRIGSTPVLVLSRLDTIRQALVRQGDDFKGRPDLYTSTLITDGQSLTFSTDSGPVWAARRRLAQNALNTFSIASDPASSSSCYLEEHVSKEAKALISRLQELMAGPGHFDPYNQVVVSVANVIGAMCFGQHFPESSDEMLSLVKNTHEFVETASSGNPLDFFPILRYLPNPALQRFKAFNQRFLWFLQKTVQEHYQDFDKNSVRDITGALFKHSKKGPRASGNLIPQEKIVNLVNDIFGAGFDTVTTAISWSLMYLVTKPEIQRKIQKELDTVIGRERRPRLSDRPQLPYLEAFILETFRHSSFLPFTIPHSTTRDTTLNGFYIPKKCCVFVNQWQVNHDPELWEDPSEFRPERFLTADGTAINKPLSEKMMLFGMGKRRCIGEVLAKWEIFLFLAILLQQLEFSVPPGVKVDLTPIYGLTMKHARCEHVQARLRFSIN
# [22] = target: Cytochrome P450 3A4 (Homo sapiens, UniProt P08684); assay: Inhibition of CYP3A4 (unknown origin) by luciferase reporter assay in presence of NADPH regeneration system; assay type: ADME
# [23] = target: Cytochrome P450 2C19 (Homo sapiens, UniProt P33261); assay: Inhibition of CYP2C19 (unknown origin) by luciferase reporter assay in presence of NADPH regeneration system
# [24] = Half life in human liver microsomes; assay type: ADME
# [25] = target: T2, Neuromedin-K receptor (Homo sapiens, UniProt P29371); assay: biochemical
# T2 sequence (P29371 whole entry): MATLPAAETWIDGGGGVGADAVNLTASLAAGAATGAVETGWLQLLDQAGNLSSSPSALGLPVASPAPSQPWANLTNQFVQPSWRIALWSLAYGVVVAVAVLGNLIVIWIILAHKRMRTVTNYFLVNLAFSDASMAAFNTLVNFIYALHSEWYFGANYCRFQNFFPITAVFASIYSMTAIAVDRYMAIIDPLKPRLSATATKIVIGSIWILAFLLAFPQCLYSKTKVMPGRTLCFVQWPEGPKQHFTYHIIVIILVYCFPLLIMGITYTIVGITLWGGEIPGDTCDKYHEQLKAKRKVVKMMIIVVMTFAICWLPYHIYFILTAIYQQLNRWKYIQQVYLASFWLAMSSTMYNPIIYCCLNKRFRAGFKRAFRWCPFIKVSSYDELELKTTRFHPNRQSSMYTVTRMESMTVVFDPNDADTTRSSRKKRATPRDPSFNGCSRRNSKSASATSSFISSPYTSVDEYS
# Description: Displacement of [3H]-SB222200 from recombinant human NK3R expressed in CHO cell membranes after 90 mins by scintillation counting analysis
# [26] = target: T2, Neuromedin-K receptor
# [27] = Lipophilicity, log D of the compound at pH 7.4; assay type: physicochemical; details: buffer, read-out: logD
# [28] = Solubility of the compound in PBS buffer at pH 7.4 by shake-flask method; assay type: physicochemical
# [29] = target: Cytochrome P450 2C9 (Homo sapiens, UniProt P11712); assay: Inhibition of CYP2C9 (unknown origin) by luciferase reporter assay in presence of NADPH regeneration system; assay type: ADME
# [30] = target: Kappa-type opioid receptor (Homo sapiens) (UniProt P41145); assay: Inhibition of KOR (unknown origin) at 1 uM relative to control
# [31] = target: Muscarinic acetylcholine receptor M3 (Homo sapiens) (UniProt P20309); assay: Displacement of [3H]4-DAMP from recombinant human muscarinic M3 receptor expressed in CHO cells at 1 uM after 60 mins by scintillation counting analysis relative to control; assay type: cell-based
# Sequence of Muscarinic acetylcholine receptor M3 (Homo sapiens) (P20309 whole entry, looked up): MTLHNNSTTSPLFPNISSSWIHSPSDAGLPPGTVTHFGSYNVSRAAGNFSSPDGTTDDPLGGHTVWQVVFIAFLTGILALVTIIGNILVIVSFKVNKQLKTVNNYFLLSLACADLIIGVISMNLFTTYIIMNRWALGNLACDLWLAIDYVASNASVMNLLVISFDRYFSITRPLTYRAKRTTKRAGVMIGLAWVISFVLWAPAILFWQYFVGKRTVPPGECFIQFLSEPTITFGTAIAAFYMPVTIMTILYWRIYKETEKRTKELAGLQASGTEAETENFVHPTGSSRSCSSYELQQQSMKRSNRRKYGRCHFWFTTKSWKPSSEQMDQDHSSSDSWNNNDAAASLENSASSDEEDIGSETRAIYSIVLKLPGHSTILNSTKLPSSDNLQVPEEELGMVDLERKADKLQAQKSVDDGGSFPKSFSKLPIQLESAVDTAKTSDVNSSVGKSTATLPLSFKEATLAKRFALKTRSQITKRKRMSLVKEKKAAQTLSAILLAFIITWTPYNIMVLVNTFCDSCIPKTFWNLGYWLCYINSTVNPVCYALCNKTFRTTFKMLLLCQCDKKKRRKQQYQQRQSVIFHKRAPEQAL
# [32] = target: D(3) dopamine receptor (Homo sapiens) (UniProt P35462); assay: Displacement of [3H]methyl-spiperone from recombinant human dopamine D3 receptor expressed in CHO cells at 1 uM by scintillation counting analysis relative to control; assay type: cell-based
# Sequence of D(3) dopamine receptor (Homo sapiens) (P35462 whole entry): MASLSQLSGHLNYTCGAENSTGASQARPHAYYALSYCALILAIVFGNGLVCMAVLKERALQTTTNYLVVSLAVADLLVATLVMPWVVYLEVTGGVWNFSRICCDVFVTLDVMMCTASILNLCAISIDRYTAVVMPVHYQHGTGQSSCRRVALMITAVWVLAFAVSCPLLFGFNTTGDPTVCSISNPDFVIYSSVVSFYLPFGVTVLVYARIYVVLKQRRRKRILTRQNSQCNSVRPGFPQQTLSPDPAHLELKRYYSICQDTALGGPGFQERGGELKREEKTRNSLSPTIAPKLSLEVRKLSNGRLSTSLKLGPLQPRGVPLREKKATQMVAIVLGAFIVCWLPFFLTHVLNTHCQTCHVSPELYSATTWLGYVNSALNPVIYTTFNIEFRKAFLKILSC
# [33] = target: Delta-type opioid receptor (Rattus norvegicus) (UniProt P33533); assay: Displacement of [3H]naloxone from delta opioid receptor in rat cerebral cortex at 1 uM after 40 mins by scintillation counting analysis relative to control; assay type: tissue-based
# Sequence of Delta-type opioid receptor (Rattus norvegicus) (P33533 whole entry): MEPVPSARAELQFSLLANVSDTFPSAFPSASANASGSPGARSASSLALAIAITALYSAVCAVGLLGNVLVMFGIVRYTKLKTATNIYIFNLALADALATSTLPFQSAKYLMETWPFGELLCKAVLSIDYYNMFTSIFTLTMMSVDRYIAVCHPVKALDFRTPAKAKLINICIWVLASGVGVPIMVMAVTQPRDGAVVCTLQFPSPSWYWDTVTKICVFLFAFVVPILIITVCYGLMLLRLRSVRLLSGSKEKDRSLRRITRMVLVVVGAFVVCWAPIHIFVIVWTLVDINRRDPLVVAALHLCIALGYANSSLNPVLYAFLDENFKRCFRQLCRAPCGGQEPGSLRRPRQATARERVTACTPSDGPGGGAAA
# [34] = target: 5-hydroxytryptamine receptor 2A (Homo sapiens) (UniProt P28223); assay: Displacement of [3H]ketanserin from recombinant human 5HT2A receptor expressed in HEK293 cells at 1 uM after 60 mins by scintillation counting analysis relative to control; assay type: cell-based
# [35] = target: Kappa-type opioid receptor (Rattus norvegicus) (UniProt P34975); assay: Inhibition of rat recombinant KOR expressed in CHO cells at 1 uM by radioligand displacement assay relative to control; assay type: cell-based
# Sequence of Kappa-type opioid receptor (Rattus norvegicus) (P34975 whole entry): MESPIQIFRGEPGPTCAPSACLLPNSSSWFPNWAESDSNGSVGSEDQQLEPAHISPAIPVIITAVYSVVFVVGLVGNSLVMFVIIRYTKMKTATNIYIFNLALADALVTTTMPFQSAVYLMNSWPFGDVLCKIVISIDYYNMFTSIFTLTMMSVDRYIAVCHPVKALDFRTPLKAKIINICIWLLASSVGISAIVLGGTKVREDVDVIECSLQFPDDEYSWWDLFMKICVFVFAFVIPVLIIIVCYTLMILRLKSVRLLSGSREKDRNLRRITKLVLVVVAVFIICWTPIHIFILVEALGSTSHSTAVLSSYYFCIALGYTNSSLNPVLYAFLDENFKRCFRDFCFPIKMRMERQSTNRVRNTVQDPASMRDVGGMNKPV
# [36] = target: 5-hydroxytryptamine receptor 7 (Homo sapiens) (UniProt P34969); assay: Inhibition of recombinant human 5HT7 receptor expressed in CHO cells at 1 uM by radioligand displacement assay relative to control; assay type: cell-based
# [37] = target: Sodium-dependent dopamine transporter (Homo sapiens) (UniProt Q01959); assay: Displacement of [3H]BTCP from recombinant human dopamine transporter expressed in CHO cells at 1 uM after 120 mins by scintillation counting analysis relative to control; assay type: cell-based
# [38] = target: Histamine H2 receptor (Homo sapiens) (UniProt P25021); assay: Displacement of [125I]APT from recombinant human histamine H2 receptor expressed in CHO cells at 1 uM after 120 mins by scintillation counting analysis relative to control; assay type: cell-based
# [39] = target: Mu-type opioid receptor (Homo sapiens) (UniProt P35372); assay: Inhibition of recombinant human mu opioid receptor expressed in HEK293 cells at 1 uM by radioligand displacement assay relative to control; assay type: cell-based
# Sequence of Mu-type opioid receptor (Homo sapiens) (P35372 whole entry): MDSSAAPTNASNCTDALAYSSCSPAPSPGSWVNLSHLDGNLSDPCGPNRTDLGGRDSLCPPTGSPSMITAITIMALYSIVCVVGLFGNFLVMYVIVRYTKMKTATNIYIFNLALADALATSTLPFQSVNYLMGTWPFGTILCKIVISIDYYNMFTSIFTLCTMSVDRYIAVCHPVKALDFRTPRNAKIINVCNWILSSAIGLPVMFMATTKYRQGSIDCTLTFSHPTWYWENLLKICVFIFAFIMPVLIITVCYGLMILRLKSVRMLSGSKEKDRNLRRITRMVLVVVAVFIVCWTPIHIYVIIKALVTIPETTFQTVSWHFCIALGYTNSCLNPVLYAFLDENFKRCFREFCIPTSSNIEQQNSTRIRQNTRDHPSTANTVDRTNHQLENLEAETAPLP
# [40] = target: 5-hydroxytryptamine receptor 2B (Homo sapiens) (UniProt P41595); assay: Displacement of [3H]mesulergine from recombinant human 5HT2B receptor expressed in CHO cells at 1 uM after 60 mins by scintillation counting analysis relative to control; assay type: cell-based
# [41] = target: 5-hydroxytryptamine receptor 1A (Homo sapiens) (UniProt P08908); assay: Inhibition of recombinant human 5HT1A receptor expressed in HEK293 cells at 1 uM by radioligand displacement assay relative to control; assay type: cell-based
# [42] = target: Muscarinic acetylcholine receptor M4 (Homo sapiens) (UniProt P08173); assay: Displacement of [3H]4-DAMP from recombinant human muscarinic M4 receptor expressed in CHO cells at 1 uM after 60 mins by scintillation counting analysis relative to control; assay type: cell-based
# Sequence of Muscarinic acetylcholine receptor M4 (Homo sapiens) (P08173 whole entry): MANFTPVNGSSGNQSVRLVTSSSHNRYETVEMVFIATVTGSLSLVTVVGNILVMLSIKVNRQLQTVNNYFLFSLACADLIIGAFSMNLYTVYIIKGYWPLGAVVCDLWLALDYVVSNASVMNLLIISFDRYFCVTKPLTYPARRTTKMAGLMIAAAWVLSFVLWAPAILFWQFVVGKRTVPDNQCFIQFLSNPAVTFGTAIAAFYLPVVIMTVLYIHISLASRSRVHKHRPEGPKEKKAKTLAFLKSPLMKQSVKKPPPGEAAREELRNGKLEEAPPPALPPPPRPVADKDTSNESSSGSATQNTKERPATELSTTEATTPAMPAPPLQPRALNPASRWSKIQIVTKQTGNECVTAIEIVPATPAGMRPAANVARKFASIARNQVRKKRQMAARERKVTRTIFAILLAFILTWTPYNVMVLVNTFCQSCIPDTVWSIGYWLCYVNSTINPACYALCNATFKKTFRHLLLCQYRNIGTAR
# [43] = target: Sodium-dependent noradrenaline transporter (Homo sapiens) (UniProt P23975); assay: Displacement of [3H]nisoxetine from recombinant human norepinephrine transporter expressed in CHO cells at 1 uM after 120 mins by scintillation counting analysis relative to control; assay type: cell-based
# Sequence of Sodium-dependent noradrenaline transporter (Homo sapiens) (P23975 whole entry): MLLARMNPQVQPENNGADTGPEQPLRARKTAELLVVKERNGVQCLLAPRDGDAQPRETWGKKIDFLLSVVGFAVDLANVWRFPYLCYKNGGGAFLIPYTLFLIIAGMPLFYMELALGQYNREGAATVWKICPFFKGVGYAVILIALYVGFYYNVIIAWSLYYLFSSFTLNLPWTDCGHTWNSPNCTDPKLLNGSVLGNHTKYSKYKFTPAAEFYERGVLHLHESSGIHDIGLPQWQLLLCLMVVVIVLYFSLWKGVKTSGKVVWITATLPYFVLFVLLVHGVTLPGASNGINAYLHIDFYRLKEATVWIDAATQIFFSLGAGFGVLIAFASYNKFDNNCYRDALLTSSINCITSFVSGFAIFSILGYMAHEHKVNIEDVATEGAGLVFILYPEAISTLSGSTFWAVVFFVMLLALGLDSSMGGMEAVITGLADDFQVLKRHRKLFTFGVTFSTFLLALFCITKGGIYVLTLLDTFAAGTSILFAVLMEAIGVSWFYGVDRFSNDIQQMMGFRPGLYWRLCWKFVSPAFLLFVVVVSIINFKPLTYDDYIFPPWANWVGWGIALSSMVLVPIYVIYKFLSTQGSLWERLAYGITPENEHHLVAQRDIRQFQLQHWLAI
# [44] = target: Muscarinic acetylcholine receptor M5 (Homo sapiens) (UniProt P08912); assay: Displacement of [3H]4-DAMP from recombinant human muscarinic M5 receptor expressed in CHO cells at 1 uM after 60 mins by scintillation counting analysis relative to control; assay type: cell-based
# [45] = Ratio of apparent permeability across apical to basolateral over basolateral to apical side in human Caco2 cells in presence of 0.1% bovine serum albumin; assay type: ADME, cell-based; details: Caco-2
# Sequence of Adenosine receptor A1 (Homo sapiens) (P30542 whole entry): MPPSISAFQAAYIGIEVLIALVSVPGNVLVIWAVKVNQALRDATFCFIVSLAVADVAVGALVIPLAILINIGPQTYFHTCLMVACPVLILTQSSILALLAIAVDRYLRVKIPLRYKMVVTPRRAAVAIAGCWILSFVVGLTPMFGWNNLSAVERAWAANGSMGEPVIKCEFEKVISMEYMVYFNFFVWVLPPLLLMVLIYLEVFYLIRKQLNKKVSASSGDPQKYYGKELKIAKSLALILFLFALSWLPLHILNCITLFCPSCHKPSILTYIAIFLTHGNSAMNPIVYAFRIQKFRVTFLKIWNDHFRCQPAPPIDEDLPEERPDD
compound,measurement,setting,value
CC[C@H](NC(=O)c1c(O)c(-c2ccccc2)nc2ccccc12)c1ccccc1 [TALNETANT],inhibition,[1],> 60%
same,Papp A→B,[2],872 nm/s
same,fAUC,[3],0.7 µM·min
same,Tmax,[4],1 h
same,inhibition,[5],> 60%
same,"fraction unbound at 4 h, 5 µM",[6],0.01
same,Papp B→A,[7],985 nm/s
same,inhibition,[8],12%
same,inhibition,[9],> 60%
same,inhibition,[10],> 60%
same,fCmax,[11],2.65 nM
same,inhibition,[12],> 60%
same,"fraction unbound at 4 h, 5 µM",[13],0.0003
same,clearance,[14],0.12 L/h/kg
same,half-life,[15],7.47 h
same,bioavailability,[16],47%
same,fAUC,[17],0.5 µM·min
same,Vd,[18],1.5 L/kg
O=C(c1ccc(F)cc1)N1CCn2c(nnc2-c2ccccn2)C1,IC50,[19],15 µM
same,half-life,[20],> 4 h
same,IC50,[21],27 µM
same,IC50,[22],> 100 µM
same,IC50,[23],14 µM
same,half-life,[24],> 4 h
same,Ki,[25],4.5 µM
same,IC50,[26],4 µM
same,logD,[27],1.1
same,solubility thermodynamic,[28],≥ 200 µM
same,bioavailability,[16],108%
same,IC50,[29],66 µM
CC(=O)N(C)C1(c2ccccc2)CCN(CCC[C@]2(c3ccc(Cl)c(Cl)c3)CCCN(C(=O)c3ccccc3)C2)CC1 [OSANETANT],inhibition,[30],75%
same,inhibition,[31],> 50%
same,inhibition,[32],> 50%
same,fAUC,[3],0.1 µM·min
same,inhibition,[33],> 50%
same,inhibition,[34],> 50%
same,Tmax,[4],0.75 h
same,"fraction unbound at 4 h, 5 µM",[6],0.001
same,inhibition,[8],100%
same,inhibition,[35],> 50%
same,logD,[27],3.4
same,inhibition,[36],> 50%
same,fCmax,[11],0.42 nM
same,inhibition,[37],> 50%
same,inhibition,[38],> 50%
same,"fraction unbound at 4 h, 5 µM",[13],0.006
same,inhibition,[39],> 50%
same,half-life,[15],2.02 h
same,inhibition,[40],> 50%
same,inhibition,[41],> 50%
same,fAUC,[17],0.2 µM·min
same,inhibition,[42],> 50%
same,inhibition,[43],> 50%
same,inhibition,[44],> 50%
CC(C)NCC(O)COc1cccc2ccccc12 (configuration not stated) [PROPRANOLOL],Ratio,[45],1
same,Papp A→B,[2],≥ 450 nm/s
same,Papp B→A,[7],≥ 450 nm/s
